Experimental data reported in paper PMC3912015, “Synthetic Multivalent Antifungal Peptides Effective against Fungi” (PLoS ONE, 2014).
In brackets after ≈: the same amount, converted by molar mass. Where two headings read alike, the source gives them in different places. Bridge positions count the residues as written; N and C are the ends. Ends that are not written are not given here. Peptide text beside a SMILES is read from it. I, II: the chains in the order shown.

Key:
F. solani ATCC36031 = assay: microbe, parasite or virus in culture; type: cell-based; conditions: ATCC36031, 48 h
[1] = type: biochemical
Method: Small unilamellar vesicles (SUVs) were prepared using PC/PE/PI or PS lipids (5∶2.5∶2.5) containing 15 wt% ergosterol or PC/Cholesterol (10∶1). For the preparation of PC/PE/PI or PS/Erg SUV, the lipids were dissolved in chloroform/methanol (2∶1, v/v) in a glass tube. Ergosterol was dissolved in same solvent and added to lipid mixture to make final ergosterol content of 15 wt%. The Lipid-ergosterol mixture was dried using nitrogen gas to form lipid layer. The film was hydrated in a buffer containing 20 mM PBS (pH 7), vortexed and sonicated. Each cycle of sonication (5 sec, 40°C) was followed by freezing in liquid nitrogen and thawing on a water bath kept at 37°C. The procedure was repeated 5–6 times until an optically clear dispersion appeared. The SUV was divided into two parts. To the first part 50 mM calcein was added and incubated for 1 h. The excess calcein was removed by injecting 100 µL of the calcien-loaded SUV’s into a Ultrahydrogel™ 250 (7.8 mm × 300 mm) column equilibrated with 20 mM PBS (pH 7.0) and eluted isochratically at a flow rate of 1 mL/min for 1.5 column volumes. The calcein-loaded liposomes were mixed with calcein-free liposome (1∶1) to adjust final liposome concentration. Peptide concentration was added to obtain 1∶30 or 1∶15 peptide:liposome ratio. Changes in the fluorescence signal after addition of peptide or Triton X-100 was measured on a PTI spectrofluorometer, using an excitation wavelength of 480 nm and emission wavelength of 512 nm. The Percentage calcein released at each time point was calculated using the equation, [drawing 1]
Where A0 is the observed fluorescence intensity upon addition of peptides, Amin is the average intensity at the baseline (before peptide addition), Amax is the average intensity at the saturation phase after adding 1% Triton X-100. Similar protocol was followed for the preparation of PC/Cholesterol SUVs.

C. albicans ATCC24433 = assay: microbe, parasite or virus in culture; type: cell-based; conditions: ATCC24433, 48 h
Method: (§1) The yeast strains were cultivated and suspended in Sabouraud’s Dextrose (SD) broth diluted to one sixth at a starting OD600 = ∼0.08 in a flat-bottomed microtitre plate. A serial dilution of peptide in the same broth was mixed with the inoculum to give a final peptide concentration of 0.4–22 µM. The antifungal activity was assessed by monitoring the OD600 in cycles of 30 minutes and an orbital shaking at 100 rpm using an Infinite M200 microplate reader (Tecan Group Ltd., Switzerland) for 24/48 h at 37°C. Cultures without peptides were used as positive controls and broth alone or with 22 µM peptide served as negative controls. The minimum concentration required for complete inhibition was assessed by both visible observations as well as by measuring the OD600 and taken as the MIC. Each experiment was repeated in triplicates. For studying the effects of metal ions, SD broth was adjusted with appropriate concentrations of salts to yield a final concentration of 100 and 135 mM for NaCl and KCl and 0.5–2 mM for CaCl2 and MgCl2. MIC determinations were carried out as described above. C. albicans ATCC10231 cells and salts in broth were taken as a positive control. Salts alone (NaCl, KCl, and CaCl2 and MgCl2) in broth or with 22 µM peptide served as a negative control. The effect of 5% human serum on the activities of B4010 against two C. albicans clinical isolates was determined. The human male serum was centrifuged at 13,000 rpm for 10 mins in order to remove the lipids and the supernatant was collected. The MIC values against clinical isolates of C. albicans 2672R and C. albicans 1976R were determined both in standard medium (SD broth) as well as in standard medium containing 5% serum supernatant as before.

C. albicans ATCC10231 = assay: microbe, parasite or virus in culture; type: cell-based; conditions: ATCC10231, 48 h
Method: as §1

C. albicans DF1976R = assay: microbe, parasite or virus in culture; type: cell-based; conditions: DF1976R, 48 h
Method: as §1

C. albicans ATCC2091 = assay: microbe, parasite or virus in culture; type: cell-based; conditions: ATCC2091, 48 h
Method: as §1

C. albicans DF2672R = assay: microbe, parasite or virus in culture; type: cell-based; conditions: DF2672R, 48 h
Method: as §1

in vitro = type: cell-based, human; conditions: human
Method: (§2) Immortalized normal human conjunctival epithelial cells (IOBANHC) were a gift from Yolanda Diebold at the University of Valladolid, Spain [31]. IOBA-NHC cells were cultured under standard conditions (humidified atmosphere of 5% CO2 at 37°C) in DMEM/F12 supplemented with 1 µg/ml bovine pancreas insulin, 2 ng/ml mouse epidermal growth factor, 0.1 µg/ml cholera toxin, 5 µg/ml hydrocortisone, 10% fetal bovine serum (FBS), 50 UI/ml penicillin, and 50 UI/ml streptomycin. Cells from passages 50–80 were used in all experiments. Every day, normal culture development was observed by phase-contrast microscopy. Cells were removed by gentle trypsin incubation at confluence and counted. They were seeded into 96 well culture plates (Corning, Schiphol-Rijk, The Netherlands) for microtitration analysis of flow cytotoxicity assay (∼10,000 cells/well). Cultures were kept at 37°C for 24 h. Subconfluent cells (culture surface covering nearly 70%) were then exposed to various peptide concentrations (0.22–225 µM). Cytotoxicity was measured periodically using MultiTox-Fluor Multiplex assay kit (Promega, WI, USA) by measuring the AFC fluorescence (λex = 485 and λem = 520 nm). We report the cell viability after 24 h incubation of the cells with the peptides since there was no detectable toxicity even after 8 h of incubation.

[2] = test system: human conjunctival epithelial cells (IOBA-NHC); assay: in vitro; type: cell-based; conditions: 24 h
Method: as §2

[3] = read-out: MIC in µM against Ca 24433
[4] = read-out: MIC in µM against Ca 10231
[5] = read-out: MIC in µM against Ca DF1976R
[6] = read-out: MIC in µM against Ca 2091
[7] = read-out: MIC in µM against Ca 2672R

CC(C)[C@H](NC(=O)[C@H](CCCCN)NC(=O)[C@H](CCCNC(=N)N)NC(=O)CNC(=O)[C@@H](N)CCCNC(=N)N)C(=O)N[C@H](C(=O)N[C@@H](CCCNC(=N)N)C(=O)N[C@@H](CCCNC(=N)N)C(=O)NCCCC[C@H](NC(=O)[C@H](CCCNC(=N)N)NC(=O)[C@H](CCCNC(=N)N)NC(=O)[C@@H](NC(=O)[C@@H](NC(=O)[C@H](CCCCN)NC(=O)[C@H](CCCNC(=N)N)NC(=O)CNC(=O)[C@@H](N)CCCNC(=N)N)C(C)C)C(C)C)C(=O)N[C@@H](CCCCN)C(=O)O)C(C)C [B2088] (I: H-RGRKVVRRKK-OH / II: H-RGRKVVRR; amide I:9-II:C; N-terminus and C-terminus assumed)
MIC (F. solani ATCC36031): 10.9 µM (≈ 25 µg/mL) | calcein release relative to B4010 [1]: decreased calcein release | MIC (C. albicans ATCC24433; read-out: MIC): 2.7 µM (≈ 6.19 µg/mL) | MIC (C. albicans ATCC10231; read-out: MIC): 5.5 µM (≈ 12.6 µg/mL) | MIC (C. albicans DF1976R; read-out: MIC): 0.8 µM (≈ 1.83 µg/mL) | MIC (C. albicans ATCC2091; read-out: MIC): 1.4 µM (≈ 3.21 µg/mL) | MIC (C. albicans DF2672R; read-out: MIC): 0.8 µM (≈ 1.83 µg/mL)

CC(C)[C@H](NC(=O)[C@H](CCCCN)NC(=O)[C@H](CCCNC(=N)N)NC(=O)CNC(=O)[C@H](C)N)C(=O)N[C@H](C(=O)N[C@@H](CCCNC(=N)N)C(=O)N[C@@H](CCCNC(=N)N)C(=O)NCCCC[C@H](NC(=O)[C@H](CCCNC(=N)N)NC(=O)[C@H](CCCNC(=N)N)NC(=O)[C@@H](NC(=O)[C@@H](NC(=O)[C@H](CCCCN)NC(=O)[C@H](CCCNC(=N)N)NC(=O)CNC(=O)[C@H](C)N)C(C)C)C(C)C)C(=O)NCCCC[C@H](NC(=O)[C@H](CCCCNC(=O)[C@H](CCCNC(=N)N)NC(=O)[C@H](CCCNC(=N)N)NC(=O)[C@@H](NC(=O)[C@@H](NC(=O)[C@H](CCCCN)NC(=O)[C@H](CCCNC(=N)N)NC(=O)CNC(=O)[C@H](C)N)C(C)C)C(C)C)NC(=O)[C@H](CCCNC(=N)N)NC(=O)[C@H](CCCNC(=N)N)NC(=O)[C@@H](NC(=O)[C@@H](NC(=O)[C@H](CCCCN)NC(=O)[C@H](CCCNC(=N)N)NC(=O)CNC(=O)[C@H](C)N)C(C)C)C(C)C)C(=O)N[C@@H](CCCCN)C(=O)O)C(C)C [B4010_R1A] (I: H-AGRKVVRRKKK-OH / II: H-AGRKVVRRK / III: H-AGRKVVRR / IV: H-AGRKVVRR; amide I:9-IV:C, I:10-II:C, II:9-III:C; N-terminus and C-terminus assumed)
viability at 24 h, 237 µM (in vitro): 67.6% | EC50 [2]: > 237 µM | MIC (C. albicans ATCC24433; [3]): 5.9 µM (≈ 24.9 µg/mL) | MIC (C. albicans ATCC10231; [4]): 5.9 µM (≈ 24.9 µg/mL) | MIC (C. albicans DF1976R; [5]): 0.75 µM (≈ 3.17 µg/mL) | MIC (C. albicans ATCC2091; [6]): 1.5 µM (≈ 6.33 µg/mL) | MIC (C. albicans DF2672R; [7]): 1.5 µM (≈ 6.33 µg/mL)

CC(C)[C@H](NC(=O)[C@H](CCCCN)NC(=O)[C@H](C)NC(=O)CNC(=O)[C@@H](N)CCCNC(=N)N)C(=O)N[C@H](C(=O)N[C@@H](CCCNC(=N)N)C(=O)N[C@@H](CCCNC(=N)N)C(=O)NCCCC[C@H](NC(=O)[C@H](CCCNC(=N)N)NC(=O)[C@H](CCCNC(=N)N)NC(=O)[C@@H](NC(=O)[C@@H](NC(=O)[C@H](CCCCN)NC(=O)[C@H](C)NC(=O)CNC(=O)[C@@H](N)CCCNC(=N)N)C(C)C)C(C)C)C(=O)NCCCC[C@H](NC(=O)[C@H](CCCCNC(=O)[C@H](CCCNC(=N)N)NC(=O)[C@H](CCCNC(=N)N)NC(=O)[C@@H](NC(=O)[C@@H](NC(=O)[C@H](CCCCN)NC(=O)[C@H](C)NC(=O)CNC(=O)[C@@H](N)CCCNC(=N)N)C(C)C)C(C)C)NC(=O)[C@H](CCCNC(=N)N)NC(=O)[C@H](CCCNC(=N)N)NC(=O)[C@@H](NC(=O)[C@@H](NC(=O)[C@H](CCCCN)NC(=O)[C@H](C)NC(=O)CNC(=O)[C@@H](N)CCCNC(=N)N)C(C)C)C(C)C)C(=O)N[C@@H](CCCCN)C(=O)O)C(C)C [B4010_R3A] (I: H-RGAKVVRRKKK-OH / II: H-RGAKVVRRK / III: H-RGAKVVRR / IV: H-RGAKVVRR; amide I:9-IV:C, I:10-II:C, II:9-III:C; N-terminus and C-terminus assumed)
viability at 24 h, 237 µM (in vitro): 80.9% | EC50 [2]: > 237 µM | % Calcein released from PC/PE/PS/Erg [1]: ~63% | MIC (C. albicans ATCC24433; [3]): 1.5 µM (≈ 6.33 µg/mL) | MIC (C. albicans ATCC10231; [4]): 1.5 µM (≈ 6.33 µg/mL) | MIC (C. albicans DF1976R; [5]): 0.4 µM (≈ 1.69 µg/mL) | MIC (C. albicans ATCC2091; [6]): 1.5 µM (≈ 6.33 µg/mL) | MIC (C. albicans DF2672R; [7]): 0.4 µM (≈ 1.69 µg/mL)

CC(C)[C@H](N)C(=O)N[C@@H](CCCNC(=N)N)C(=O)NCC(=O)N[C@@H](CCCNC(=N)N)C(=O)N[C@H](C(=O)N[C@@H](CCCNC(=N)N)C(=O)N[C@@H](CCCCN)C(=O)N[C@@H](CCCNC(=N)N)C(=O)NCCCC[C@H](NC(=O)[C@H](CCCNC(=N)N)NC(=O)[C@H](CCCCN)NC(=O)[C@H](CCCNC(=N)N)NC(=O)[C@@H](NC(=O)[C@H](CCCNC(=N)N)NC(=O)CNC(=O)[C@H](CCCNC(=N)N)NC(=O)[C@@H](N)C(C)C)C(C)C)C(=O)NCCCC[C@H](NC(=O)[C@H](CCCCNC(=O)[C@H](CCCNC(=N)N)NC(=O)[C@H](CCCCN)NC(=O)[C@H](CCCNC(=N)N)NC(=O)[C@@H](NC(=O)[C@H](CCCNC(=N)N)NC(=O)CNC(=O)[C@H](CCCNC(=N)N)NC(=O)[C@@H](N)C(C)C)C(C)C)NC(=O)[C@H](CCCNC(=N)N)NC(=O)[C@H](CCCCN)NC(=O)[C@H](CCCNC(=N)N)NC(=O)[C@@H](NC(=O)[C@H](CCCNC(=N)N)NC(=O)CNC(=O)[C@H](CCCNC(=N)N)NC(=O)[C@@H](N)C(C)C)C(C)C)C(=O)N[C@@H](CCCCN)C(=O)O)C(C)C [Sc_B4010] (I: H-VRGRVRKRKKK-OH / II: H-VRGRVRKRK / III: H-VRGRVRKR / IV: H-VRGRVRKR; amide I:9-IV:C, I:10-II:C, II:9-III:C; N-terminus and C-terminus assumed)
calcein release relative to B4010 [1]: decreased calcein release | MIC (C. albicans ATCC24433; read-out: MIC): 5.6 µM (≈ 25.6 µg/mL) | MIC (C. albicans ATCC10231; read-out: MIC): 5.6 µM (≈ 25.6 µg/mL) | MIC (C. albicans DF1976R; read-out: MIC): 0.8 µM (≈ 3.65 µg/mL) | MIC (C. albicans ATCC2091; read-out: MIC): 2.7 µM (≈ 12.3 µg/mL) | MIC (C. albicans DF2672R; read-out: MIC): 0.8 µM (≈ 3.65 µg/mL)

RGRKVVRRKK [Monomer]
MIC (F. solani ATCC36031): >78 µM | MIC (C. albicans ATCC10231; read-out: MIC): 78 µM | MIC (C. albicans DF2672R; read-out: MIC): 78 µM

RGRKVVRRKKRRVVKRGR [Linear Retrodimer]
MIC (C. albicans ATCC24433; read-out: MIC): 5.5 µM | MIC (C. albicans ATCC10231; read-out: MIC): 22 µM | MIC (C. albicans DF1976R; read-out: MIC): 2.7 µM | MIC (C. albicans ATCC2091; read-out: MIC): 11 µM | MIC (C. albicans DF2672R; read-out: MIC): 2.7 µM
